Tests used:
[1] = Inhibition of rabbit skeletal muscle PP2A catalytic subunit using [32P]-phosphorylase alpha as substrate pretreated for 10 mins followed by substrate addition; set-up: species or system Oryctolagus cuniculus
Oryctolagus cuniculus = species on record: Oryctolagus cuniculus; assay: Selectivity ratio of IC50 for rabbit skeletal muscle PP2A catalytic subunit to IC50 for rabbit skeletal muscle PP1 catalytic subunit
[2] = Inhibition of rabbit skeletal muscle PP1 catalytic subunit using [32P]-phosphorylase alpha as substrate pretreated for 10 mins followed by substrate addition; set-up: species or system Oryctolagus cuniculus
[3] = target: Serine/threonine-protein phosphatase 2A catalytic subunit alpha isoform (Homo sapiens, UniProt P67775); assay: Inhibition of recombinant human PP2A catalytic subunit L309 deletion mutant using DIFMUP as substrate pretreated for 10 mins followed by substrate addition measured every 15 secs for 30 mins by fluorescence assay
[4] = target: Serine/threonine-protein phosphatase PP1-alpha catalytic subunit (Homo sapiens, UniProt P62136); assay: Inhibition of recombinant PP1alpha catalytic subunit (unknown origin) using DIFMUP as substrate pretreated for 10 mins followed by substrate addition measured every 15 secs for 30 mins by fluorescence assay
Sequence of Serine/threonine-protein phosphatase PP1-alpha catalytic subunit (P62136 whole entry): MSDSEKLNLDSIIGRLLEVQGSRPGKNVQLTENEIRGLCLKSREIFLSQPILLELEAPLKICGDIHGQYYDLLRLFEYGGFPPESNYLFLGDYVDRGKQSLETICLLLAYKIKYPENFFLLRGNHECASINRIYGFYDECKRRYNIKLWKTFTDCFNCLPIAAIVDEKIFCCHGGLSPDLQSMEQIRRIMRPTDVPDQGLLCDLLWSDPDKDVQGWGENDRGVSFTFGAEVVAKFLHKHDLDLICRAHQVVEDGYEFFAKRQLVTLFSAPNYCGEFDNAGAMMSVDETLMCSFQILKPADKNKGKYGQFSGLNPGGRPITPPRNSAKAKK

Sequence of Serine/threonine-protein phosphatase 2A catalytic subunit alpha isoform (P67775 whole entry, looked up, canonical isoform): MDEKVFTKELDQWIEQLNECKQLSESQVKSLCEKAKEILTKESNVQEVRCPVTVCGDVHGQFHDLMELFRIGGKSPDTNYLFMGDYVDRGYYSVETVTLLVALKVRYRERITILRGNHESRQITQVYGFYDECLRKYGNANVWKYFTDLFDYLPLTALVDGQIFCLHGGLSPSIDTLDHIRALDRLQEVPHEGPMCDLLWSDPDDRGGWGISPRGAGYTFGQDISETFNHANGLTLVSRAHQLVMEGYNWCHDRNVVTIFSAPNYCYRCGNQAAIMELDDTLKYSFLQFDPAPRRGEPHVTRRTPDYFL

SMILES | IC50 [1] | Ratio IC50 (Oryctolagus cuniculus) | IC50 [2] | IC50 [3] | IC50 [4]
C=C1C(=O)N[C@H](C)C(=O)N[C@@H](CC2CCCCC2)C(=O)N[C@@H](C(=O)O)[C@H](C)C(=O)N[C@@H](C)C(=O)N[C@@H](/C=C/C(C)=C/[C@H](C)[C@H](Cc2ccccc2)OC)[C@H](C)C(=O)N[C@@H](C(=O)O)CCC(=O)N1C | 3.4 nM | 7 | 0.52 nM | – | –
CC(C)C[C@@H]1NC(=O)[C@@H](C)NC(=O)CN(C)C(=O)CC[C@H](C(=O)O)NC(=O)[C@@H](C)[C@H](C)NC(=O)[C@H](Cc2ccccc2)NC(=O)C[C@H](C(=O)O)NC1=O | – | – | – | 900 nM | 254000 nM
